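Exposure lasted 48 hours, with cells grown in 96-well plates and compounds tested at five concentrations. At the TGI there is no net growth.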
Legend:
Experiment in all cases: DTP human tumour cell line panel, 48 h
UACC-62 melanoma = system: UACC-62 melanoma
LOX IMVI melanoma = system: LOX IMVI melanoma
HS 578T breast = system: HS 578T breast
RXF 393 renal = system: RXF 393 renal
K-562 leukemia = system: K-562 leukemia
COLO 205 colon = system: COLO 205 colon
UO-31 renal = system: UO-31 renal
RPMI-8226 leukemia = system: RPMI-8226 leukemia
U251 CNS = system: U251 CNS
786-0 renal = system: 786-0 renal
SNB-19 CNS = system: SNB-19 CNS
MDA-N = system: MDA-N
DU-145 prostate = system: DU-145 prostate
SF-268 CNS = system: SF-268 CNS
SK-MEL-5 melanoma = system: SK-MEL-5 melanoma
M14 melanoma = system: M14 melanoma
MDA-MB-231 breast = system: MDA-MB-231 breast
OVCAR-3 ovarian = system: OVCAR-3 ovarian
HCC-2998 colon = system: HCC-2998 colon
HOP-92 NSCLC = system: HOP-92 NSCLC
MDA-MB-435 = system: MDA-MB-435
T-47D breast = system: T-47D breast
UACC-257 melanoma = system: UACC-257 melanoma
HCT-116 colon = system: HCT-116 colon
HT29 colon = system: HT29 colon
IGROV1 ovarian = system: IGROV1 ovarian
MALME-3M melanoma = system: MALME-3M melanoma
A498 renal = system: A498 renal
SN12C renal = system: SN12C renal
OVCAR-8 ovarian = system: OVCAR-8 ovarian
NCI/ADR-RES ovarian = system: NCI/ADR-RES ovarian
SR leukemia = system: SR leukemia
EKVX NSCLC = system: EKVX NSCLC
PC-3 prostate = system: PC-3 prostate
OVCAR-5 ovarian = system: OVCAR-5 ovarian
SK-MEL-28 melanoma = system: SK-MEL-28 melanoma
A549 NSCLC = system: A549 NSCLC
SK-OV-3 ovarian = system: SK-OV-3 ovarian
KM12 colon = system: KM12 colon
NCI-H522 lung = system: NCI-H522 lung
HCT-15 colon = system: HCT-15 colon
HL-60(TB) leukemia = system: HL-60(TB) leukemia
TK-10 renal = system: TK-10 renal
SK-MEL-2 melanoma = system: SK-MEL-2 melanoma
SW-620 colon = system: SW-620 colon
SNB-75 CNS = system: SNB-75 CNS
NCI-H460 lung = system: NCI-H460 lung
NCI-H226 lung = system: NCI-H226 lung
BT-549 breast = system: BT-549 breast
MCF7 breast = system: MCF7 breast
CAKI-1 renal = system: CAKI-1 renal
SF-539 CNS = system: SF-539 CNS
OVCAR-4 ovarian = system: OVCAR-4 ovarian

SMILES: Cc1cc(S(=O)(=O)n2ccnc2Oc2ccccc2)c(SSc2cc(Cl)c(C)cc2S(=O)(=O)n2ccnc2Oc2ccccc2)cc1Cl
- TGI (UACC-62 melanoma): > 100 µM
- TGI (LOX IMVI melanoma): > 100 µM
- TGI (HS 578T breast): 38.6 µM
- TGI (RXF 393 renal): > 100 µM
- TGI (K-562 leukemia): > 100 µM
- TGI (COLO 205 colon): > 100 µM
- TGI (UO-31 renal): > 100 µM
- TGI (RPMI-8226 leukemia): > 100 µM
- TGI (U251 CNS): > 100 µM
- TGI (786-0 renal): > 100 µM
- TGI (SNB-19 CNS): > 100 µM
- TGI (MDA-N): > 100 µM
- TGI (DU-145 prostate): > 100 µM
- TGI (SF-268 CNS): > 100 µM
- TGI (SK-MEL-5 melanoma): > 100 µM
- TGI (M14 melanoma): > 100 µM
- TGI (MDA-MB-231 breast): > 100 µM
- TGI (OVCAR-3 ovarian): > 100 µM
- TGI (HCC-2998 colon): > 100 µM
- TGI (HOP-92 NSCLC): > 100 µM
- TGI (MDA-MB-435): > 100 µM
- TGI (T-47D breast): > 100 µM
- TGI (UACC-257 melanoma): > 100 µM
- TGI (HCT-116 colon): > 100 µM
- TGI (HT29 colon): > 100 µM
- TGI (IGROV1 ovarian): > 100 µM
- TGI (MALME-3M melanoma): > 100 µM
- TGI (A498 renal): > 100 µM
- TGI (SN12C renal): > 100 µM
- TGI (OVCAR-8 ovarian): > 100 µM
- TGI (NCI/ADR-RES ovarian): > 100 µM
- TGI (SR leukemia): > 100 µM
- TGI (EKVX NSCLC): > 100 µM
- TGI (PC-3 prostate): > 100 µM
- TGI (OVCAR-5 ovarian): > 100 µM
- TGI (SK-MEL-28 melanoma): > 100 µM
- TGI (A549 NSCLC): > 100 µM
- TGI (SK-OV-3 ovarian): > 100 µM
- TGI (KM12 colon): > 100 µM
- TGI (NCI-H522 lung): > 100 µM
- TGI (HCT-15 colon): > 100 µM
- TGI (HL-60(TB) leukemia): > 100 µM
- TGI (TK-10 renal): > 100 µM
- TGI (SK-MEL-2 melanoma): > 100 µM
- TGI (SW-620 colon): > 100 µM
- TGI (SNB-75 CNS): > 100 µM
- TGI (NCI-H460 lung): > 100 µM
- TGI (NCI-H226 lung): > 100 µM
- TGI (BT-549 breast): > 100 µM
- TGI (MCF7 breast): > 100 µM
- TGI (CAKI-1 renal): > 100 µM
- TGI (SF-539 CNS): > 100 µM
- TGI (OVCAR-4 ovarian): > 100 µM

Source: PubChem BioAssay (NCI)
